What was measured:
SHR = assay: Effect by oral administration on SHR, tail cuff method (Experiment C-6); assay type: in vivo, Spontaneously hypertensive male rats
Procedure: By using Spontaneously hypertensive male rats (aged 16 to 17 weeks), the compound of Example C-8 and a comparative compound [S-(R*,R*)]-2,3,4,5-tetrahydro-3-[(2-mercapto-1-oxohexyl)amino]-2-oxo-1H-benzazepine-1-acetic acid having the following structure each dissolved in 0.5% methylcellulose were orally administered thereto. Hypotensive effects were measured by the tail cuff method and data obtained before the oral administration and 2, 4 and 8 hours after the administration were compared. […] Accordingly, the compound of Example C-8 has an activity about 10 times as high as that of the comparative compound. [drawing 35]

[1] = target: T1, vasopressin (V1) receptor (Rattus norvegicus, UniProt P30560); assay: V1 receptor binding assay, rat liver membrane (Experiment E-3); settings: [3H]-Arg-vasopressin, pH 7.4
T1 construct: Membrane specimens of rat liver (V1); from tissue; host or cells: rat liver membranes
T1 sequence (P30560 whole entry): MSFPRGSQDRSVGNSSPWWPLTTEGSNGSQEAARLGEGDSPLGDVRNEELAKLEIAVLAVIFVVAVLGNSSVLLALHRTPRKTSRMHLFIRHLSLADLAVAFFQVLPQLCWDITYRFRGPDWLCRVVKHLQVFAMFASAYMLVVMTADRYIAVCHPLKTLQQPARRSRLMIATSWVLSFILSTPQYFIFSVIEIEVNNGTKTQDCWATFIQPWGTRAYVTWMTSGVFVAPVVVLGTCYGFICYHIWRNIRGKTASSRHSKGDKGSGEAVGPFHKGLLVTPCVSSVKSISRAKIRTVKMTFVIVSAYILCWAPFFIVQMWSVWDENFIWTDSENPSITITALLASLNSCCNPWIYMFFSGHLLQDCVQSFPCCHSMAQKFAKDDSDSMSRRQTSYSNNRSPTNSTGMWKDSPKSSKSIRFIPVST
Procedure: (§1) Membrane specimens of rat liver (V1) and rat kidney (V2) were used. 100,000 counts (3.69 nM) of [^3 H]-Arg-vasopressin, 25 μg (1 mg protein/ml) of each membrane specimen and a test medicament (10^-7 to 10^-5 M) were incubated in a total volume of 250 μl of an assay buffer (pH=7.4) containing 10 mM of MgCl2, 2 mM of EGTA and 20 mM of HEPES at 4° C. over day and night. Then, the incubation was washed with 5-ml portions of the buffer 5 times to thereby separate the membrane specimen binding to vasopressin followed by filtration with the use of a glass filter (GF/F). This glass filter was dried for about 3 hours and mixed with a cocktail for liquid scintillation (10 ml, ACSII). After allowing to stand overnight, the amount of the [^3 H]-Arg-vasopressin binding to the membrane was determined with a liquid scintillation counter and the inhibition ratio was calculated in accordance with the following formula: […]
(§2) B1; the amount of [^3 H]-Arg-vasopressin binding to the membrane in the presence of excessive vasopressin (10 μM)
(§3) C0; the amount of [^3 H]-Arg-vasopressin binding to the membrane in the absence of the test medicament and
(§4) C1; the amount of [^3 H]-Arg-vasopressin binding to the membrane in the presence of both the test medicament in a known amount and [^3 H]-Arg-vasopressin. […]

[2] = target: T2, vasopressin (V2) receptor (Rattus norvegicus, UniProt Q00788); assay: V2 receptor binding assay, rat kidney membrane (Experiment E-3); settings: [3H]-Arg-vasopressin, pH 7.4
T2 construct: rat kidney (V2); from tissue; host or cells: rat kidney membranes
T2 sequence (Q00788 whole entry): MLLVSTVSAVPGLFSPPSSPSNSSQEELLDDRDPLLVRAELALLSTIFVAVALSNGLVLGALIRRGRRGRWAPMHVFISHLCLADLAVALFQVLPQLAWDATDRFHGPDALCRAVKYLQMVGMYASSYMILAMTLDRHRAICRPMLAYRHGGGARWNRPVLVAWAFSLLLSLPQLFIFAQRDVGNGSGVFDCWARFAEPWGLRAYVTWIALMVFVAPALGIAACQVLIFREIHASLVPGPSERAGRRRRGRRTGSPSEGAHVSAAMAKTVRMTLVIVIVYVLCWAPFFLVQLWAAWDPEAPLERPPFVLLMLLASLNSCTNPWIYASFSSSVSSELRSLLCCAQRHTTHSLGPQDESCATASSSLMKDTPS
Procedure: as §1, §2, §3, §4

| Structure (SMILES) | hypotensive effect (tail cuff method) (SHR; 1.0 mg/kg oral, before and 2, 4 and 8 hours after) | activity relative to the comparative compound (SHR; oral, SHR) | IC50 [1] [µM] | IC50 [2] [µM] |
| --- | --- | --- | --- | --- |
| CC[C@H](C)[C@H](S)C(=O)N[C@H]1CCC[C@H]2SC[C@@H](C(=O)O)N2C1=O [Example C-8, [3R-[3α,6α,(S*),9aβ]]-6-[[(2S,3S)-3-methyl-1-oxo-2-thiopentyl]amino]-octahydro-5-oxothiazol[3,2-a]-azepine-3-carboxylic acid] | comparable to the one achieved by 10 mg/kg of the above comparative compound | about 10 times |  |  |
| CC(C)[C@H](S)C(=O)N[C@H]1Cc2ccc(-c3ccccc3)cc2[C@H]2CCC[C@@H](C(=O)O)N2C1=O [Example E-10, [4S-[4α,7α(R*),12bβ]]-7-[(S)-2-Mercapto-3-methylbutyrylamino]-6-oxo-11-phenyl-1,2,3,4,6,7,8,12b-octahydropyrido[2,1-a][2]benzazepine-4-carboxylic acid] |  |  | ≥ 10 | 4.49 |
